Source: PubChem BioAssay AID463235 (The Scripps Research Institute Molecular Screening Center, 2010)
Activity calls are given as the source filed them. The rule behind the calls is not given here.

Assay: inhibitors of HCV replicon RNA replication – cell-based, luminescence, HCV NS3 helicase inhibitor project, late-stage follow-up (AID 463235)
Conditions: HCV replicon cells, RNA blot hybridization, 3 days; for IC90: measured here: 90% replicon inhibition

Row | Compound | IC50 | IC90
1 | Cc1ccc(C(=O)C2=C(O)C(=O)N(Cc3ccco3)C2c2cccc(Cl)c2)o1 (centres undefined) | > 10 µM (inactive) | > 10 µM
2 | COc1cc(C2C(C(=O)c3ccc(C)o3)=C(O)C(=O)N2c2cc(C)on2)ccc1OCc1ccccc1 (centres undefined) | > 10 µM (inactive) | > 10 µM
3 | Cc1cc(N2C(=O)C(O)=C(C(=O)c3ccc(C)o3)C2c2ccc(OCc3ccccc3)cc2)no1 (centres undefined) | > 10 µM (inactive) | > 10 µM
4 | CCOc1cccc(C2C(C(=O)c3ccc(C)o3)=C(O)C(=O)N2Cc2ccccc2)c1 (centres undefined) | > 10 µM (inactive) | > 10 µM

More lines, now with the values ahead:

Row | IC50 | IC90 | Compound
5 | > 10 µM (inactive) | > 10 µM | CCCCCOc1ccc(C2C(C(=O)c3ccc(C)o3)=C(O)C(=O)N2c2cc(C)on2)cc1 (centres undefined)
6 | > 10 µM (inactive) | > 10 µM | COc1cccc(-n2c(SCc3cc(=O)oc4cc(O)c(O)cc34)nc3ccccc3c2=O)c1
7 | > 10 µM (inactive) | > 10 µM | COc1ccc(C=NNC(=O)c2cc(O)c(O)c(O)c2)cc1COc1ccc(C(=O)OCC(C)C)cc1
